Assay results taken from PubChem BioAssay (NCI).
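Protocol summary: plate cells (96-well), add compound at 5 concentrations, incubate 48 h, interpolate endpoints linearly. TGI denotes the concentration required for complete inhibition of growth.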

Legend:
Assay in all cases: NCI-60 cell line screen, 48 h
HOP-18 NSCLC = tested on: HOP-18 NSCLC
DLD-1 colon = tested on: DLD-1 colon
DMS 273 small cell lung = tested on: DMS 273 small cell lung
HCT-116 colon = tested on: HCT-116 colon
UACC-257 melanoma = tested on: UACC-257 melanoma
SF-268 CNS = tested on: SF-268 CNS
SNB-19 CNS = tested on: SNB-19 CNS
EKVX NSCLC = tested on: EKVX NSCLC
OVCAR-8 ovarian = tested on: OVCAR-8 ovarian
SK-OV-3 ovarian = tested on: SK-OV-3 ovarian
LOX IMVI melanoma = tested on: LOX IMVI melanoma
OVCAR-3 ovarian = tested on: OVCAR-3 ovarian
K-562 leukemia = tested on: K-562 leukemia
IGROV1 ovarian = tested on: IGROV1 ovarian
MALME-3M melanoma = tested on: MALME-3M melanoma
SN12C renal = tested on: SN12C renal
SK-MEL-2 melanoma = tested on: SK-MEL-2 melanoma
HT29 colon = tested on: HT29 colon
NCI-H460 lung = tested on: NCI-H460 lung
786-0 renal = tested on: 786-0 renal
HOP-92 NSCLC = tested on: HOP-92 NSCLC
COLO 205 colon = tested on: COLO 205 colon
HCT-15 colon = tested on: HCT-15 colon
A498 renal = tested on: A498 renal
TK-10 renal = tested on: TK-10 renal
OVCAR-5 ovarian = tested on: OVCAR-5 ovarian
SW-620 colon = tested on: SW-620 colon
UACC-62 melanoma = tested on: UACC-62 melanoma
NCI-H226 lung = tested on: NCI-H226 lung
M19-MEL melanoma = tested on: M19-MEL melanoma
UO-31 renal = tested on: UO-31 renal
RXF 393 renal = tested on: RXF 393 renal
SK-MEL-5 melanoma = tested on: SK-MEL-5 melanoma
XF 498 CNS = tested on: XF 498 CNS
HCC-2998 colon = tested on: HCC-2998 colon
HOP-62 NSCLC = tested on: HOP-62 NSCLC
CCRF-CEM leukemia = tested on: CCRF-CEM leukemia
SR leukemia = tested on: SR leukemia
SF-295 CNS = tested on: SF-295 CNS
KM20L2 colon = tested on: KM20L2 colon
DMS 114 small cell lung = tested on: DMS 114 small cell lung
U251 CNS = tested on: U251 CNS
CAKI-1 renal = tested on: CAKI-1 renal
SNB-75 CNS = tested on: SNB-75 CNS
ACHN renal = tested on: ACHN renal
NCI-H23 lung = tested on: NCI-H23 lung
OVCAR-4 ovarian = tested on: OVCAR-4 ovarian
SK-MEL-28 melanoma = tested on: SK-MEL-28 melanoma
LXFL 529 NSCLC = tested on: LXFL 529 NSCLC
A549 NSCLC = tested on: A549 NSCLC
KM12 colon = tested on: KM12 colon
HL-60(TB) leukemia = tested on: HL-60(TB) leukemia
MOLT-4 leukemia = tested on: MOLT-4 leukemia
NCI-H522 lung = tested on: NCI-H522 lung
RPMI-8226 leukemia = tested on: RPMI-8226 leukemia
M14 melanoma = tested on: M14 melanoma

Measured: TGI

CC(=O)OCC1OC(n2cc(I)c(=O)[nH]c2=O)C(OC(C)=O)C(OC(C)=O)C1OC(C)=O (stereo unspecified)
> 100 µM: HOP-18 NSCLC | DLD-1 colon | DMS 273 small cell lung | HCT-116 colon | UACC-257 melanoma | SF-268 CNS | SNB-19 CNS | EKVX NSCLC | OVCAR-8 ovarian | SK-OV-3 ovarian | LOX IMVI melanoma | OVCAR-3 ovarian | K-562 leukemia | IGROV1 ovarian | MALME-3M melanoma | SN12C renal | SK-MEL-2 melanoma | HT29 colon | NCI-H460 lung | 786-0 renal | HOP-92 NSCLC | COLO 205 colon | HCT-15 colon | A498 renal | TK-10 renal | OVCAR-5 ovarian | SW-620 colon | UACC-62 melanoma | NCI-H226 lung | M19-MEL melanoma | UO-31 renal | RXF 393 renal | SK-MEL-5 melanoma | XF 498 CNS | HCC-2998 colon | HOP-62 NSCLC | CCRF-CEM leukemia | SR leukemia | SF-295 CNS | KM20L2 colon | DMS 114 small cell lung | U251 CNS | CAKI-1 renal | SNB-75 CNS | ACHN renal | NCI-H23 lung | OVCAR-4 ovarian | SK-MEL-28 melanoma | LXFL 529 NSCLC | A549 NSCLC | KM12 colon | HL-60(TB) leukemia | MOLT-4 leukemia | NCI-H522 lung | RPMI-8226 leukemia | M14 melanoma
